According to ChEMBL document CHEMBL4673175, “An epigrammatic status of the azole-based antimalarial drugs” (RSC Med Chem, 2020):
Values after ≈ are worked out from the molar mass of the structure shown.

The molecules below were run on Plasmodium (assay: Antimalarial activity against Plasmodium). Conditions: not given.
Format: functional
C/C(=N\NC(=S)Nc1ccc(F)cc1)c1nc2cc(Cl)ccc2[nH]1 showed an IC50 of 3 ng/mL (≈ 8.29 nM).
C/C(=N\NC(=S)Nc1ccccc1)c1nc2cc(Cl)ccc2[nH]1 showed an IC50 of 3 ng/mL (≈ 8.72 nM).
Molecule C/C(=N\NC(=S)NC(=O)c1ccccc1)c1nc2cc(Cl)ccc2[nH]1 has an IC50 of 3 ng/mL (≈ 8.07 nM).
CCCCNC(=S)N/N=C(\C)c1nc2cc(Cl)ccc2[nH]1 showed an IC50 of 3 ng/mL (≈ 9.26 nM).
In the case of C/C(=N\NC(=S)Nc1ccc(C)cc1)c1nc2cc(Cl)ccc2[nH]1, the IC50 is reported as 3 ng/mL (≈ 8.38 nM).
C/C(=N\NC(=S)Nc1ccc(Cl)cc1Cl)c1nc2cc(Cl)ccc2[nH]1 gave an IC50 of 3 ng/mL (≈ 7.27 nM).
C/C(=N\NC(=S)NC(C)C)c1nc2cc(Cl)ccc2[nH]1 showed an IC50 of 3 ng/mL (≈ 9.68 nM).
Molecule C/C(=N\NC(=S)NCc1ccccc1)c1nc2cc(Cl)ccc2[nH]1 has an IC50 of 3 ng/mL (≈ 8.38 nM).
COc1ccc(NC(=S)N/N=C(\C)c2nc3cc(Cl)ccc3[nH]2)cc1 was tested, and the IC50 was 3 ng/mL (≈ 8.02 nM).
With C/C(=N\NC(=S)Nc1ccc([N+](=O)[O-])cc1)c1nc2cc(Cl)ccc2[nH]1 the IC50 was 3 ng/mL (≈ 7.72 nM).
In the case of C/C(=N\NC(=S)NC(C)(C)C)c1nc2cc(Cl)ccc2[nH]1, the IC50 is reported as 3 ng/mL (≈ 9.26 nM).
Molecule C/C(=N\NC(N)=S)c1nc2cc(Cl)ccc2[nH]1 has an IC50 of 3 ng/mL (≈ 11.2 nM).
Molecule COc1ccccc1NC(=S)N/N=C(\C)c1nc2cc(Cl)ccc2[nH]1 has an IC50 of 3 ng/mL (≈ 8.02 nM).
COc1cccc(NC(=S)N/N=C(\C)c2nc3cc(Cl)ccc3[nH]2)c1 gave an IC50 of 3 ng/mL (≈ 8.02 nM).
C/C(=N\NC(=S)NC1CCCCC1)c1nc2cc(Cl)ccc2[nH]1 was tested, and the IC50 was 3 ng/mL (≈ 8.57 nM).
CCNC(=S)N/N=C(\C)c1nc2cc(Cl)ccc2[nH]1 showed an IC50 of 3 ng/mL (≈ 10.1 nM).
Molecule C/C(=N\NC(=S)Nc1ccc(Cl)cc1)c1nc2cc(Cl)ccc2[nH]1 has an IC50 of 3 ng/mL (≈ 7.93 nM).
C/C(=N\NC(=S)Nc1ccc(I)cc1)c1nc2cc(Cl)ccc2[nH]1 gave an IC50 of 3 ng/mL (≈ 6.39 nM).

These molecules were tested on Hemozoin (assay: Inhibition of beta-hematin formation at 5 to 100 mM incubated for 48 hrs). Conditions: dose 5-100 mM.
Molecule COc1cccc(NC(=O)c2ccc3[nH]c(-c4ccc([N+](=O)[O-])s4)nc3c2)c1 has an inhibition of under 98%.
With O=C(Nc1ccccc1Cl)c1ccc2[nH]c(-c3ccc([N+](=O)[O-])o3)nc2c1 the inhibition was under 98%.
With COc1cccc(NC(=O)c2ccc3[nH]c(-c4ccc([N+](=O)[O-])o4)nc3c2)c1 the inhibition was under 98%.
With O=C(Nc1ccccc1Cl)c1ccc2[nH]c(-c3ccc([N+](=O)[O-])s3)nc2c1 the inhibition was under 98%.
Cc1ccc(NC(=O)c2ccc3[nH]c(-c4ccc([N+](=O)[O-])s4)nc3c2)c(C)c1 was tested, and the inhibition was under 98%.
With Cc1cc(C)cc(NC(=O)c2ccc3[nH]c(-c4ccc([N+](=O)[O-])s4)nc3c2)c1 the inhibition was under 98%.
With O=C(Nc1ccc(C(F)(F)F)cc1)c1ccc2[nH]c(-c3ccc([N+](=O)[O-])o3)nc2c1 the inhibition was under 98%.
For COc1ccc(NC(=O)c2ccc3[nH]c(-c4ccc([N+](=O)[O-])s4)nc3c2)c(OC)c1, the inhibition was under 98%.
For COc1ccc(NC(=O)c2ccc3[nH]c(-c4ccc([N+](=O)[O-])s4)nc3c2)cc1Cl, the inhibition was under 98%.
For COc1ccc(NC(=O)c2ccc3[nH]c(-c4ccc([N+](=O)[O-])o4)nc3c2)c(OC)c1, the inhibition was under 98%.
With Cc1ccc(NC(=O)c2ccc3[nH]c(-c4ccc([N+](=O)[O-])s4)nc3c2)cc1C the inhibition was under 98%.
O=C(Nc1ccc(Br)cc1)c1ccc2[nH]c(-c3ccc([N+](=O)[O-])s3)nc2c1 gave an inhibition of under 98%.
Cc1ccc(C)c(NC(=O)c2ccc3[nH]c(-c4ccc([N+](=O)[O-])o4)nc3c2)c1 showed an inhibition of under 98%.
In the case of Cc1ccc(NC(=O)c2ccc3[nH]c(-c4ccc([N+](=O)[O-])o4)nc3c2)cc1C, the inhibition is reported as under 98%.
Cc1ccc(C)c(NC(=O)c2ccc3[nH]c(-c4ccc([N+](=O)[O-])s4)nc3c2)c1 showed an inhibition of under 98%.
In the case of Cc1cccc(NC(=O)c2ccc3[nH]c(-c4ccc([N+](=O)[O-])s4)nc3c2)c1, the inhibition is reported as under 98%.
Molecule Cc1ccccc1NC(=O)c1ccc2[nH]c(-c3ccc([N+](=O)[O-])o3)nc2c1 has an inhibition of under 98%.
COc1cc(NC(=O)c2ccc3[nH]c(-c4ccc([N+](=O)[O-])s4)nc3c2)cc(OC)c1OC showed an inhibition of under 98%.
Cc1cccc(NC(=O)c2ccc3[nH]c(-c4ccc([N+](=O)[O-])o4)nc3c2)c1 gave an inhibition of under 98%.
For Cc1ccccc1NC(=O)c1ccc2[nH]c(-c3ccc([N+](=O)[O-])s3)nc2c1, the inhibition was under 98%.
Cc1cc(C)cc(NC(=O)c2ccc3[nH]c(-c4ccc([N+](=O)[O-])o4)nc3c2)c1 gave an inhibition of under 98%.
Molecule O=C(Nc1ccc(Cl)cc1)c1ccc2[nH]c(-c3ccc([N+](=O)[O-])o3)nc2c1 has an inhibition of under 98%.
Work on O=C(Nc1ccc(Br)cc1)c1ccc2[nH]c(-c3ccc([N+](=O)[O-])o3)nc2c1 yielded an inhibition of under 98%.
COc1ccc(NC(=O)c2ccc3[nH]c(-c4ccc([N+](=O)[O-])o4)nc3c2)cc1Cl was tested, and the inhibition was under 98%.
COc1cc(NC(=O)c2ccc3[nH]c(-c4ccc([N+](=O)[O-])o4)nc3c2)cc(OC)c1OC gave an inhibition of under 98%.
Work on O=C(Nc1ccc(Cl)cc1)c1ccc2[nH]c(-c3ccc([N+](=O)[O-])s3)nc2c1 yielded an inhibition of under 98%.
